Experimental data published in the SangsterLogP compilation.

Tests used:
[1] = method code SF, from DOI: 10.1016/s0928-0987(97)10019-7; conditions: pH 7.4
[2] = method code SF-HPLC, from Huang, H.; YU, D.; Wang, C.; Shi, S.; Shi, J. (2014). Determination of apparent oil/water partition coefficient of spinosin. Yaowu fenxi zazhi, 34(3)497-499.; conditions: pH 7.4
[3] = method code SF-AS, from DOI: 10.1021/jm00371a014, PMID: 6716401; conditions: pH 7.4
[4] = not given; remark: listed apart in the source
[5] = method code SF-AS, from DOI: 10.1562/0031-8655(2002)076<0127:dlbcop>2.0.co;2, PMID: 12194207; conditions: pH 7.3
[6] = method code SF-RC, from DOI: 10.1002/jps.2600770619, PMID: 3171939; conditions: pH 2.0
[7] = not given; remark: listed apart in the source
[8] = method code SF-AS, from DOI: 10.1002/qua.560100722; conditions: pH 7.8
[9] = not given; remark: listed apart in the source
[10] = method code SF-AS, from DOI: 10.1248/cpb.25.1350, PMID: 890858; conditions: pH 6.5
[11] = not given; remark: listed apart in the source
[12] = method code SF-RC, from DOI: 10.1002/jps.2600730807, PMID: 6491907
[13] = method code SF-HPLC, from PMID: 8932441; conditions: pH 7.4
[14] = method code SF-RC, from DOI: 10.1016/j.nucmedbio.2014.03.016, PMID: 24776092; conditions: pH 7.4
[15] = method code SF-RC, from DOI: 10.1016/0378-5173(86)90124-9
[16] = method code SF, from DOI: 10.1016/0378-5173(85)90077-8
[17] = not given; remark: listed apart in the source
[18] = method code SF-AS, from DOI: 10.1021/ja00198a050
[19] = method code SF-HPLC, from Xiong, Ð. (2009). Apparent partiton coefficient of hawthorn leaf flavonoids in phospholipids complex. Chinese Traditional Patent Medicine, 31(7)1075-1078.
[20] = not given; remark: listed apart in the source
[21] = method code SF-RC, from PMID: 3346819; conditions: pH 7.4
[22] = method code SF-AS, from DOI: 10.1016/s0960-894x(99)00527-2, PMID: 10571171; conditions: pH 7.0
[23] = not given; remark: listed apart in the source
[24] = method code SF-AS, from DOI: 10.1562/0031-8655(2003)0780411sacotn2.0.co2, PMID: 14626671; conditions: pH 6.8
[25] = method code SF-GLC, from DOI: 10.1021/je990149u
[26] = pH 7.4
[27] = method code SF-HPLC, from PMID: 3219139; conditions: pH 9.0
[28] = method code SF-RC, from DOI: 10.1016/s0022-2275(20)42614-8, PMID: 2280184; conditions: pH 1.0
[29] = method code SF-HPLC, from DOI: 10.1211/0022357001774101, PMID: 10813545
[30] = method code SF, from DOI: 10.1021/jm00079a001, PMID: 1732531; conditions: pH 7.4
[31] = not given; remark: listed apart in the source
[32] = method code SF-HPLC, from DOI: 10.1023/a:1016359301852, PMID: 24271710
[33] = not given; remark: listed apart in the source
[34] = method code SF-RC, from PMID: 9639294; conditions: pH 7.5

## CC(C)(C)S(=O)(=O)C[C@@H](Cc1ccccc1)C(=O)N[C@@H](Cc1cnc[nH]1)C(=O)N[C@@H](CC1CCCCC1)[C@@H](O)[C@@H](O)C1CC1
[1]
  logD: 2.75

## COc1ccc(CCN(C)CCCC(C#N)(c2cc(OC)c(OC)c(OC)c2)C(C)C)cc1OC (stereo not given)
other
  logP: 3.71

## COc1cc2oc(-c3ccc(O)cc3)cc(=O)c2c(O)c1[C@@H]1O[C@H](CO)[C@@H](O)[C@H](O)[C@H]1O[C@@H]1O[C@H](CO)[C@@H](O)[C@H](O)[C@H]1O
[2]
  logD: 0.56

## COc1cccc2c1C(=N)c1c(O)c3c(c(O)c1C2=O)C[C@](O)(C(=O)CO)C[C@@H]3O[C@H]1C[C@@H](N2CCOC[C@@H]2C#N)[C@@H](O)[C@@H](C)O1
[3]
  logD: 1.97

## CC1(C)CC[C@]2(C(=O)O)CC[C@]3(C)C(=CC[C@@H]4[C@@]5(C)CC[C@H](O)C(C)(C)[C@@H]5CC[C@]43C)[C@@H]2C1
[4]
  logP: 3.63

## COC(=O)CCC1=C(C)c2cc3cc(C)c(cc4cc(C)c(cc5nc(cc1n2)C(CCC(=O)OC)=C5C)[nH]4)[nH]3
[5]
  logD: 3.95

## CC1(C)C(OC(=O)CCC(=O)O)CC[C@@]2(C)[C@H]1CC[C@]1(C)[C@H]2C(=O)C=C2[C@@H]3C[C@@](C)(C(=O)O)CC[C@]3(C)CC[C@]21C (stereo not given in full)
[6]
  logD: 2.81

## COc1cccc2c1C(=O)c1c(O)c3c(c(O)c1C2=O)C[C@@](O)(C(=O)CO)C[C@@H]3O[C@H]1C[C@H](N)[C@H](I)[C@H](C)O1
[7]
  logP: 1.53

## COc1cccc2c1C(=O)c1c(O)c3c(c(O)c1C2=O)CC(O)(C(C)=O)CC3OC1CC(NC(=O)CNC(=O)CN(C)C)C(O)C(C)O1 (stereo not given)
[8]
  logD: 1.12

## CCn1c(=O)c2c(nc(C=Cc3ccc(C(=O)OCCOCCOCCOCCOCCOCCOCCOCCOCCOC)c(OC)c3)n2C)n(CC)c1=O
[9]
  logP: 2.8

## CCC(=O)OCc1c(CSSCc2cnc(C)c(OC(=O)CC)c2COC(=O)CC)cnc(C)c1OC(=O)CC
[10]
  logD: 2.68

## CC(C)(C)NC(=O)[C@@H]1C[C@@H]2CCCC[C@@H]2CN1C[C@@H](O)[C@H](Cc1ccccc1)NC(=O)[C@H](CC(N)=O)NC(=O)c1ccc2ccccc2n1
[11]
  logP: 3

## CC1OC(OC2C(O)CC(OC3C(O)CC(OC4CCC5(C)C(CCC6C5CC(O)C5(C)C(C7COC(=O)C7)CCC65O)C4)OC3C)OC2C)CC(O)C1O (stereo not given)
[12]
  logP: 1.25

## CCCCOC(=O)NS(=O)(=O)c1ccccc1-c1ccc(Cn2c(CCC)nc(CC)c2C(C)=O)c(F)c1
[13]
  logD: 1.72

## C[C@H](CCC(=O)NCc1cn(CCF)nn1)[C@H]1CC[C@H]2[C@@H]3[C@H](O)C[C@@H]4C[C@H](O)CC[C@]4(C)[C@H]3CC[C@]12C
[14]
  logD: 1.61

## CCCCC[C@H](O)/C=C/[C@@H]1[C@@H](C/C=C\CCCC(=O)OCc2ccccc2)[C@@H](O)C[C@H]1O
[15]
  logP: 4.11

## CCCCCCCC(=O)OCC(=O)[C@@]1(O)CC[C@H]2[C@@H]3CCC4=CC(=O)CC[C@]4(C)[C@H]3C(=O)C[C@@]21C
[16]
  logP: 4.22

## CO[C@@H](CC[C@H](C)[C@H]1O[C@@]23CC(OC(=O)C[C@H]([C@@H](C)O)OC(=O)C[C@](O)(O2)[C@H](C)CC3(C)C)[C@@H]1C)c1cc(O)ccc1Br
[17]
  logP: 5.4

## CC(C)(C)c1ccc2c(c1)OCCOCCOCCOCCOCCOCCOCCOCCO2
[18]
  logP: 1.89

## C[C@@H]1O[C@@H](OC[C@H]2O[C@@H](Oc3c(-c4ccc(O)c(O)c4)oc4cc(O)cc(O)c4c3=O)[C@H](O)[C@@H](O)[C@@H]2O)[C@H](O)[C@H](O)[C@H]1O
[19]
  logP: -0.09

## CCCN(CCC)C(=O)Cc1c(-c2ccc(OC(=O)NCCc3ccc(O)c(O)c3)cc2)nc2ccc(Cl)cn12
[20]
  logP: 4.3

## CC(CNC(=O)c1ccccc1)C(=O)OCC(=O)C12OC(C)(C)OC1CC1C3CCC4=CC(=O)C=CC4(C)C3(F)C(O)CC12C (stereo not given)
[21]
  logD: 2.3

## O=C(NCCN(CCNC(=O)c1ccc2cccnc2c1O)CCNC(=O)c1ccc2cccnc2c1O)c1ccc2cccnc2c1O
[22]
  logD: 1

## COc1cc(CN2C(=O)N(Cc3cccc(C(=O)Nc4cnc(C)cn4)c3)C(Cc3ccccc3)C(O)C(O)C2Cc2ccccc2)cc(OC)c1 (stereo not given)
[23]
  logP: 5.59

## COc1c(O)c2c(=O)cc(OC)c3c4c(OC)cc(=O)c5c(O)c(NCCN6CCOCC6)c6c(c(c1C(C(C)=O)=C(C)C6)c23)c54
[24]
  logD: 1.15

## CCCCCCCCCCOC(=O)c1ccccc1C(=O)OCCCCCCCCCC
[25]
  logP: 9.05

## CCN1CC(C(O)C(CC2CCCCC2)NC(=O)C(Cc2cscn2)NC(=O)C(CC(=O)N2CCOCC2)Cc2ccccc2)OC1=O (stereo not given)
[26]
  logD: 2.83

## COC(=O)C1=C(C)NC(C)=C(C(=O)O[C@@H]2CCCN(Cc3ccccc3)C2)[C@@H]1c1cccc([N+](=O)[O-])c1 (relative stereo)
[27]
  logD: 3.47

## CC(CCC(=O)NCC(=O)O)C1CCC2C3CCC4CC(O)CCC4(C)C3CC(O)C12C (stereo in doubt)
[28]
  logD: 2.25

## C[C@]12CC[C@H]3[C@@H](CCC4=CC(=O)CC[C@@]43C)[C@@H]1CC[C@@H]2OC(=O)CCC1CCCC1
[29]
  logP: 4.89

## C=CCC(NC(=O)C(Cc1ccccc1)NS(=O)(=O)N1CCOCC1)C(=O)NC(CC1CCCCC1)C(=O)C(F)(F)C(=O)NCC(C)CC (stereo not given)
[30]
  logD: 4.63

## N#CC(CCN1CCC(C(N)=O)(N2CCCCC2)CC1)(c1ccccc1)c1ccccc1
[31]
  logP: 3.91

## C#CC1(OC(=O)c2ccn(C)c2)CCC2C3CCC4=CC(=O)CCC4C3CCC21C (stereo not given)
[32]
  logP: 4.44

## O=C(NNCc1ccncc1)C1CCCN1C(=O)C(Cc1ccc(Cl)c(Cl)c1)NS(=O)(=O)Cc1ccccc1 (stereo not given)
[33]
  logP: 2.57

## CCOC(=O)C1=C(COCCOCCNC(=O)C(C)(C)C)NC(C)=C(C(=O)OC)C1c1cccc(Cl)c1Cl (stereo not given)
[34]
  logD: 2.12
